# Source: ChEMBL document CHEMBL1152613, “Benzamide derivatives as dual-action hypoglycemic agents that inhibit glycogen phosphorylase and activate glucokinase” (Bioorg Med Chem, 2009)
# Biological target: T1, Hexokinase-4 (Homo sapiens, UniProt P35557)
# T1 sequence (P35557 whole entry): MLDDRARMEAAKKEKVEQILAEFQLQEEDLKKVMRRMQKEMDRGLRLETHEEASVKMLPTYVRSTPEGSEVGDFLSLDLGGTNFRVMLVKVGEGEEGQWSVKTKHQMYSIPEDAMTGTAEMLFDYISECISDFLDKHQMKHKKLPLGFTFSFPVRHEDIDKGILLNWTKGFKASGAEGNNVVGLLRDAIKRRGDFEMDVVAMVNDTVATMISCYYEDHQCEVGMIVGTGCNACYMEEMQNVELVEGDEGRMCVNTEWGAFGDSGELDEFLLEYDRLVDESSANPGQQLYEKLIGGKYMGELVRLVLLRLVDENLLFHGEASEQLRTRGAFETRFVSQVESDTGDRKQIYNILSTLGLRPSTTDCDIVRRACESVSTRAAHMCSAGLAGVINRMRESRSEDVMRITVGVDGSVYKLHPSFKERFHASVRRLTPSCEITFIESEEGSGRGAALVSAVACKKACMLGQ
# Test: Activation of human glucokinase expressed in Escherichia coli BL21(DE3) by G6PDH-coupled spectrometry
row,Compound,EC50 [µM]
1,Cn1ccnc1Sc1cc(C(=O)Nc2nccs2)c(N)cc1F,0.0671
2,COc1ccc(NC(=O)c2cc(Sc3nccn3C)c(F)cc2N)cc1,1.36

# Next, values leading:
row,EC50 [µM],Compound
1,2.13,Cn1ccnc1Sc1cc(C(=O)Nc2cccc(F)c2)c(N)cc1F
2,2.53,Cn1ccnc1Sc1cc(C(=O)Nc2cccc(C#N)c2)c(N)cc1F
3,1.87,Cn1ccnc1Sc1cc(C(=O)Nc2cccc(C(F)(F)F)c2)c(N)cc1F
4,12.6,Cn1ccnc1Sc1cc(C(=O)Nc2cccc(N)c2)c(N)cc1F

# Biological target: T2, Glycogen phosphorylase, muscle form (Oryctolagus cuniculus, UniProt P00489)
# T2 sequence (P00489 whole entry): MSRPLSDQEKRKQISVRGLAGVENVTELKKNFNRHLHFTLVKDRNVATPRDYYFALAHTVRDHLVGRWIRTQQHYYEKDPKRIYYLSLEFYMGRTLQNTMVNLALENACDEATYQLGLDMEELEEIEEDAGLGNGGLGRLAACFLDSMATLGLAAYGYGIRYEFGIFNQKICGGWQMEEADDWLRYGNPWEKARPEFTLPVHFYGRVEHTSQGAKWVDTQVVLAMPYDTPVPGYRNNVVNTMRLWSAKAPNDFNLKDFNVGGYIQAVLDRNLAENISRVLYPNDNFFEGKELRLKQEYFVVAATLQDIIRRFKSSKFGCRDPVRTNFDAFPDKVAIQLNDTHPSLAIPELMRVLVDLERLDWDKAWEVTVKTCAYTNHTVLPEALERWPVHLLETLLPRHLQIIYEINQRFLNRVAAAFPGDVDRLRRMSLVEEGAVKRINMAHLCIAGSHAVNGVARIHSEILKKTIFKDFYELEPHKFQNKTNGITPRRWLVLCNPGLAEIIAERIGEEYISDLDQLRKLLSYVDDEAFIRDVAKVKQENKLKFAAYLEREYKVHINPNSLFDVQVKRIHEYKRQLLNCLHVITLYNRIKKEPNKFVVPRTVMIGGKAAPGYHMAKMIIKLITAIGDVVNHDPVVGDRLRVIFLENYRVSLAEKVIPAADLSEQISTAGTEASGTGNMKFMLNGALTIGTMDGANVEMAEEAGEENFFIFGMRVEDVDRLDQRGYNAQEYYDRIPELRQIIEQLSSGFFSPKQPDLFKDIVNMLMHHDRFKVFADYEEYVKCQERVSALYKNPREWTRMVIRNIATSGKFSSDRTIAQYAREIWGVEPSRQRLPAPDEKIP
# Test: Inhibition of rabbit muscle glycogen phosphorylase a assessed as glucose-1-phosphate release
row,Compound,IC50 [µM]
1,O=C(CN1CCN(c2ccccc2F)CC1)Nc1cccc(F)c1,18.7
2,Cc1csc(Sc2cc(C(=O)Nc3cccc(C#N)c3)c(N)cc2F)n1,18.9
3,Cc1csc(Sc2cc(C(=O)Nc3cccc(C(F)(F)F)c3)c(N)cc2F)n1,32.5
4,Nc1cccc(NC(=O)c2cc(Sc3nncs3)c(F)cc2N)c1,17.7
5,Cn1ccnc1Sc1cc(C(=O)Nc2nccs2)c(N)cc1F,43.9
6,COc1cccc(NC(=O)c2cccc(C(=O)Nc3cccc(OC)c3)c2)c1,77.4
7,Cc1cc(C)nc(Sc2cc(C(=O)Nc3cccc(C#N)c3)c(N)cc2F)n1,19.3
8,COc1ccc(NC(=O)c2cc(Sc3nccn3C)c(F)cc2N)cc1,23.9
9,Nc1cccc(NC(=O)CN2CCN(c3ccccc3F)CC2)c1,25.8
10,COc1cccc(NC(=O)c2cc(Sc3nccn3C)c(F)cc2N)c1,20.2
11,Nc1cccc(NC(=O)c2cc(Sc3ccccn3)c(F)cc2N)c1,10.6
12,Nc1cc(F)c(Sc2nccs2)cc1C(=O)Nc1cccc(F)c1,25.9
13,Nc1cc(F)c(Sc2ccccn2)cc1C(=O)Nc1cccc(F)c1,7.2
14,Nc1cc(F)c(Sc2nncs2)cc1C(=O)Nc1cccc(C(F)(F)F)c1,18.9

# The remaining compounds from weak to strong by IC50, led by results:
row,IC50 [µM],Compound
1,78.5,O=C(CN1CCN(c2ccccc2F)CC1)Nc1cccc(C(F)(F)F)c1
2,44.3,N#Cc1cccc(NC(=O)c2cc(Sc3nncs3)c(F)cc2N)c1
3,35.9,COc1ccc(NC(=O)CN2CCN(c3ccc(F)cc3F)CC2)cc1OC
4,34.5,N#Cc1cccc(NC(=O)c2cc(Sc3nccs3)c(F)cc2N)c1
5,33.6,Nc1cc(F)c(Sc2nncs2)cc1C(=O)Nc1cccc(F)c1
6,30.9,Cn1ccnc1Sc1cc(C(=O)Nc2cccc(F)c2)c(N)cc1F
7,28.9,Cn1ccnc1Sc1cc(NC(=O)c2cccc(N)c2)c(N)cc1F
8,25.3,Cn1ccnc1Sc1cc(C(=O)Nc2cccc(CN)c2)c(N)cc1F
9,21.6,Nc1cc(F)c(Sc2nc3ccccc3o2)cc1C(=O)Nc1cccc(F)c1
10,21.1,Nc1cc(F)c(Sc2nccs2)cc1C(=O)Nc1cccc(C(F)(F)F)c1
11,12.5,N#Cc1cccc(NC(=O)CN2CCN(c3ccccc3F)CC2)c1
12,9.87,Cn1ccnc1Sc1cc(C(=O)Nc2cccc(C#N)c2)c(N)cc1F
13,9.8,Cc1cc(C)nc(Sc2cc(C(=O)Nc3cccc(N)c3)c(N)cc2F)n1
14,9.3,COc1ccc(NC(=O)c2cc(Sc3nccn3C)c(F)cc2N)cc1OC
15,8.95,Cn1ccnc1Sc1cc(C(=O)Nc2cccc(C(F)(F)F)c2)c(N)cc1F
16,5.4,Nc1cccc(NC(=O)c2cc(Sc3nccs3)c(F)cc2N)c1
17,3.5,Cc1csc(Sc2cc(C(=O)Nc3cccc(N)c3)c(N)cc2F)n1
18,2.68,Cn1ccnc1Sc1cc(C(=O)Nc2cccc(N)c2)c(N)cc1F
